Entries after “also recorded” stand apart in the source; their conditions may differ.
Tests used:
[1] = system: Zucker Diabetic Fatty rats; assay: Measurement of bone mineral density (femoral bones, ZDF rats); type: in vivo; conditions: for Bone mineral density (BMD): mean ± standard error
Description: Osteoporosis may be assessed by a measurement of bone mineral density. Bone mineral density can be measured according to the method reported, for example, in Radioisotope, 37, (9), 521-524 (1988) or in Rinsho-Hoshasen, 35, (1), 41-48 (1990).
Three groups of animals were tested:
(§1) 1. Zucker Diabetic Fatty rats ("ZDF rats"): these are experimental animals with spontaneous diabetes mellitus. A test drug was administered to these animals in a conventional F2 powdery feed. This group is referred to as the "test ZDF group".
2. ZDF rats to which the F2 powdery feed is administered without the drug. This group is referred to as the "control ZDF group".
3. Normal experimental rats (i.e. not ZDF rats) to which the F2 powdery feed is administered without the drug. This group is referred to as the "normal group".
(§2) Compound No. 1, or 5-[4-(6-hydroxy-2,5,7,8-tetramethylchroman-2-ylmethoxy)benzyl]thiazolidin- 2,4-dione, also known as "troglitazone", was administered to 6 week old ZDF rats, by mixing it into F2 powdery feed in an amount of 0.2% w/w for a period of 13 weeks. The mean dosage was 165 mg/kg/day. […] At 19 weeks of age, the rats were sacrificed by ether anesthesia followed by blood-letting from the abdominal aorta. The femoral bones were excised to measure their bone mineral density. For the measurement by X ray, Bone Mineral Density Measuring Apparatus (DCS-600R, Aloka, Japan) was employed.
The experiment reported in Example 1 was repeated, using 4 groups of rats:
1. A normal group (as in Example 1).
2. A control ZDF group (as in Example 1).
(§3) 3. A test ZDF group in which troglitazone was present in the feed in an amount of 0.2%, resulting in an average uptake of 132 mg/kg/day (hereinafter the "troglitazone ZDF group").
(§4) 4. A test ZDF group in which pioglitazone was present in the feed in an amount of 0.067%, resulting in an average uptake of 52.6 mg/kg/day (hereinafter the "pioglitazone ZDF group").
The experiment reported in Example 1 was repeated, but only for 4 weeks, using 6 groups of rats:
(§5) 3. A test ZDF group in which troglitazone was present in the feed in an amount of 0.05%, resulting in an average uptake of 43.5 mg/kg/day (hereinafter the "low troglitazone ZDF group").
(§6) 4. A test ZDF group in which troglitazone was present in the feed in an amount of 0.1%, resulting in an average uptake of 89.8 mg/kg/day (hereinafter the "high troglitazone ZDF group").
(§7) 5. A test ZDF group in which pioglitazone was present in the feed in an amount of 0.0125%, resulting in an average uptake of 12.4 mg/kg/day (hereinafter the "low pioglitazone ZDF group").
(§8) 6. A test ZDF group in which pioglitazone was present in the feed in an amount of 0.025%, resulting in an average uptake of 23.1 mg/kg/day (hereinafter the "high pioglitazone ZDF group").

ddy-mice = assay: Acute toxicity, oral administration; conditions: in vivo, po, 300 mg/kg
Description: (§9) The acute toxicity of troglitazone was examined by a conventional procedure.
(§10) To 3 ddy-mice, a dose of 300 mg/kg of troglitazone was administered orally.
(§11) The acute toxicities of Compounds Nos. 2, 3, 4 and 10 were examined in a similar way by oral administration. The acute toxicity values were all found to be more than 300 mg/kg.

[2] = system: Zucker Diabetic Fatty rats; assay: Control of diabetes in ZDF rats; type: in vivo
Description: as §1, §2, §3, §4, §5, §6, §7, §8

[3] = Acute toxicity, oral administration; conditions: mouse, in vivo; oral administration
Description: as §9, §10, §11

rat = conditions: J. Bone & Mineral Research, 10(1), S361 (1995); cited from earlier work
[4] = Example 2, at doses that fully control diabetes, compared with control ZDF rats
[5] = Example 3, low and high doses, 4 weeks, as compared with control ZDF group
[6] = Example 2, troglitazone 132 mg/kg/day, pioglitazone 52.6 mg/kg/day
[7] = Example 3, troglitazone 43.5 and 89.8 mg/kg/day, pioglitazone 12.4 and 23.1 mg/kg/day

Compound | effect on bone mineral density (in words) [1, 4] | effect on bone mineral density (in words) [1, 5] | control of diabetes [2, 6] | control of diabetes [2, 7] | LD50 at 120 h [3] [mg/kg] | further results
Cc1c(C)c2c(c(C)c1O)CCC(C)(COc1ccc(CC3SC(=O)NC3=O)cc1)O2 (centres unmarked) [Compound No. 1, 5-[4-(6-Hydroxy-2,5,7,8-tetramethylchroman-2-ylmethoxy)benzyl]thiazolidin-2,4-dione] | increased BMD from the depressed level in the control ZDF rats almost to the level found in normal rats | improves BMD as compared with the control ZDF group | fully controlled diabetes | do not control diabetes or control it only partially; also recorded: incompletely effective against diabetes |  | Bone mineral density (BMD) ([1]; Example 1, test ZDF group, 0.2% w/w in feed, mean 165 mg/kg/day, 13 weeks, n=7, * p < 0.05 vs control ZDF (164.6 ± 3.9), normal 187.3 ± 2.3): 172.8 ± 7.2 mg/cm^2; Bone mineral density (BMD) ([1]; Example 2, troglitazone ZDF group, 0.2% in feed, 132 mg/kg/day, n=6, *** p < 0.001 vs control ZDF (157.0 ± 2.2), normal 187.4 ± 1.5): 169.4 ± 1.1 mg/cm^2; Bone mineral density (BMD) ([1]; Example 3, 4 weeks, high troglitazone ZDF group, 0.1% in feed, 89.8 mg/kg/day, n=5, *** p < 0.001 vs control ZDF (149.8 ± 1.0)): 159.8 ± 1.2 mg/cm^2; Bone mineral density (BMD) ([1]; Example 3, 4 weeks, low troglitazone ZDF group, 0.05% in feed, 43.5 mg/kg/day, n=5, *** p < 0.001 vs control ZDF (149.8 ± 1.0), normal 153.4 ± 0.9): 156.6 ± 1.5 mg/cm^2; survival after 5 days (ddy-mice): all mice were alive; control of diabetes ([2]; Example 1, mean dosage 165 mg/kg/day in feed): diabetes is fully controlled
Cc1c(C)c2c(c(C)c1O)CCC(COc1ccc(CC3SC(=O)NC3=O)cc1)O2 (centres unmarked) [compound 2] |  |  |  |  | > 300 | 
CC1(COc2ccc(CC3SC(=O)NC3=O)cc2)CCc2cc(O)ccc2O1 (centres unmarked) [compound 3] |  |  |  |  | > 300 | 
CC1(COc2ccc(CC3SC(=O)NC3=O)cc2)CCc2cc(O)c(C(C)(C)C)cc2O1 (centres unmarked) [compound 4, 5-[4-(6-Hydroxy-2-methyl-7-t-butylchroman-2-ylmethoxy)benzyl]thiazolidin-2,4-dione] |  |  |  |  | > 300 | 
CCOC(=O)Oc1c(C)c(C)c2c(c1C)CCC(C)(COc1ccc(CC3SC(=O)NC3=O)cc1)O2 (centres unmarked) [compound 10] |  |  |  |  | > 300 | 
CCc1ccc(CCOc2ccc(CC3SC(=O)NC3=O)cc2)nc1 (centres unmarked) [pioglitazone, reference compound] | reduced BMD to below the level found in untreated ZDF rats | not effective | fully controlled diabetes | do not control diabetes or control it only partially; also recorded: incompletely effective against diabetes |  | Bone mineral density (BMD) ([1]; Example 2, pioglitazone ZDF group, 0.067% in feed, 52.6 mg/kg/day, n=6, * p < 0.05 vs control ZDF (157.0 ± 2.2)): 149.3 ± 1.8 mg/cm^2; Bone mineral density (BMD) ([1]; Example 3, 4 weeks, high pioglitazone ZDF group, 0.025% in feed, 23.1 mg/kg/day, n=5, control ZDF 149.8 ± 1.0): 151.2 ± 0.7 mg/cm^2; Bone mineral density (BMD) ([1]; Example 3, 4 weeks, low pioglitazone ZDF group, 0.0125% in feed, 12.4 mg/kg/day, n=5, control ZDF 149.8 ± 1.0): 151.2 ± 0.9 mg/cm^2; bone loss as assessed by bone mineral density (rat): lead to bone loss, as assessed by a decrease in bone mineral density; anti-diabetic activity relative to troglitazone ([2]; statement in Example 2): more active than troglitazone

— patent US5804590A, “Treatment and prophylaxis of osteoporosis” (Sankyo Company, Limited, priority 1995, dated 1998)
